Where a SMILES comes first, the peptide text is derived from it. [ ]: non-standard residue; d: D form.
Legend:
mice [1] = test: Acetic acid-induced writhing test in mice; format: in vivo; conditions: for Number of writhings, n (Mean ± SEM): 15 minutes count
Description: The acetic acid-induced writhing test is a model of a chemical nociceptive stimulus applied by the intraperitoneal injection of acetic acid solution.
Intraperitoneal injection of substances that irritate serous membranes in mice induces distinctive movements, including contractions of abdominal muscles followed by muscle relaxation, extension of the hind limbs and curving of the back, known as writhing. Mice were given an intraperitoneal injection of 1% acetic acid at a dose of 0.1 mL per 10 g body weight. After the injection the mice were placed in transparent acrylic chambers and counted the number of writhings in each animal for the next 15 minutes. The analgesic effect was evaluated by a reduction in the number of writhings in mice that received the study drug relative to the control group. […] Writhing onset latency in mice was used as an additional parameter for evaluating the efficacy of the substance in the acetic acid-induced writhing test.

patients = test: Clinical application in patients with severe pain; format: in vivo, humans
Description: The use of the peptide compound in patients who have been informed about the drug and who have given their consent
When the morphine drug therapy was once again possible, the use of the experimental prototype of the drug was stopped.
Based on the extrapolation of animal data for dosages for humans, we decided to use 0.7-3 mg of the active tetrapeptide in a single dose, administered by subcutaneous injection, and under the supervision of a specialist. The drug was packaged in lyophilized form of 3 mg per vial before use and dissolved in 1-3 ml of water for injections.
The following parameters were recorded:
1. Time of onset of analgesic effect, duration of effect.
Dynamics of pain on a numerical scale of 0-10: 0—no pain, 10—unbearable pain. The patient makes regular notes on the intensity level of pain during treatment to assess the analgesic effect. Separately, the intensity of pain is noted before receiving the experimental prototype preparation, and during its' administration. 2. The physical activity of the patient. Measured on a scale: 1—normal activity, 2—activity is reduced; the patient is able to go to their own doctor, 3—bed rest at least 50% of the day, 4—bed rest for more than 50% of the day, 5—complete bed rest. 3. Subjective feelings of the patient A change of perception, mood, presence/absence of euphoria or dysphoria, discomfort in the body, feelings in the digestive tract.
Basically, the study was conducted in patients with somatic and internal types of pain, though often it was not possible to accurately classify the type of pain.

mice [2] = test: Balancing on a horizontal rod test in mice; format: in vivo
Description: The substance was injected intraperitoneally in identical weight amounts to laboratory animals in the experimental and control groups, respectively. […] The measurement was started 15 minutes after injection.
Animals were placed on a wooden rod with a diameter of 2 cm and 40 cm long, at a height of not less than 60 cm. Then we recorded the duration maintenance of equilibrium on the rod. We processed the results using single factor dispersal analysis ANOVA.

SMILES: N=C(N)NCCC[C@@H](NC(=O)[C@@H](N)Cc1ccc(O)cc1)C(=O)N[C@@H](Cc1ccccc1)C(=O)NCC(N)=O [Peptide compound, H-Tyr-D-Arg-Phe-Gly-NH2] (H-Y[dR]FG-NH2)
- increase in writhing onset latency relative to the control group, factor (mice [1]; 0.25 mg/kg): 2.6
- reduction of visceral pain (number of writhings) relative to the control group, factor (mice [1]; 0.25 mg/kg): 2.2
- % of mice w/o writhing (mice [1]; 0.25 mg/kg subcutaneous): 0%
- Number of mice w/o writhing/number of mice in group (mice [1]; 0.25 mg/kg subcutaneous): 0/9
- Writhing onset latency, s (Mean ± SEM) (mice [1]; 0.25 mg/kg subcutaneous): 397.2 ± 69.95 s
- Number of writhings, n (Mean ± SEM) (mice [1]; 0.25 mg/kg subcutaneous 40 minutes before acetic acid): 40.7 ± 4.50 n
- animals that exhibited writhing (mice [1]; 0.25 mg/kg subcutaneously): 100%
- animals in which the pain response was observed (mice [1]; 0.5 mg/kg): 40.0%
- increase in writhing onset latency relative to the control group, factor (mice [1]; 0.5 mg/kg): 4.1
- reduction of visceral pain (number of writhings) relative to the control group, factor (mice [1]; 0.5 mg/kg): 31.8
- % of mice w/o writhing (mice [1]; 0.5 mg/kg subcutaneous): 40.0%
- Number of mice w/o writhing/number of mice in group (mice [1]; 0.5 mg/kg subcutaneous): 4/10
- Writhing onset latency, s (Mean ± SEM) (mice [1]; 0.5 mg/kg subcutaneous): 632.5 ± 80.62 s
- Number of writhings, n (Mean ± SEM) (mice [1]; 0.5 mg/kg subcutaneous 40 minutes before acetic acid): 2.8 ± 1.00 n
- animals in which the pain response was observed (mice [1]; 1 mg/kg): 55.6%
- increase in writhing onset latency relative to the control group, factor (mice [1]; 1 mg/kg): 4.9
- reduction of visceral pain (number of writhings) relative to the control group, factor (mice [1]; 1 mg/kg): 74.2
- % of mice w/o writhing (mice [1]; 1 mg/kg subcutaneous): 55.6%
- Number of mice w/o writhing/number of mice in group (mice [1]; 1 mg/kg subcutaneous): 5/9
- Writhing onset latency, s (Mean ± SEM) (mice [1]; 1 mg/kg subcutaneous): 762.8 ± 55.76 s
- Number of writhings, n (Mean ± SEM) (mice [1]; 1 mg/kg subcutaneous 40 minutes before acetic acid): 1.2 ± 0.49 n
- duration of analgesic effect (patients; Patient 1, 3 mg 2 times a day): 8 to 12 h
- subjective feelings / negative effects (patients; Patient 1, 3 mg 2 times a day, first injection): very light dysphoric effect for 10-15 minutes
- degree of analgesia, pain scale 0-10 (patients; Patient 1, pain before 6-9, 3 mg 2 times a day): 1-3
- Time of analgesia (onset) (patients; Patient 1, pancreatic cancer stage IV, pain 6-9, 3 mg 2 times a day subcutaneous, 5 days): 10 to 15 min
- duration of analgesic effect (patients; Patient 2): 6 to 12 h
- negative effects (patients; Patient 2): No negative effects were detected
- degree of analgesia, pain scale 0-10 (patients; Patient 2, 2 mg three times first day, then 1.5 mg 2 times a day): 2-3
- Time of analgesia (onset) (patients; Patient 2, colon cancer stage IV, 2 mg three times first day, then 1.5 mg 2 times a day, 4 days): 10 to 15 min
- duration of analgesic effect (patients; Patient 3): 8 to 10 h
- negative effects (patients; Patient 3): No negative effects were detected
- Time of analgesia (onset) (patients; Patient 3, colon cancer stage IV, pain 7-10, 1.5 mg 2 times a day, 4 days): 10 to 15 min
- degree of analgesia, pain scale 0-10 (patients; Patient 3, pain before 7-10, 1.5 mg 2 times a day): 1-3
- duration of analgesic effect (patients; Patient 4): 8 to 10 h
- negative effects (patients; Patient 4): No negative effects were detected
- time of analgesic effect (onset) (patients; Patient 4, breast cancer stage IV, pain 7-10, 1.5 mg 2 times a day, 5 days): 10 to 20 min
- degree of analgesia, pain scale 0-10 (patients; Patient 4, pain before 7-10, 1.5 mg 2 times a day): 1-3
- duration of analgesic effect (patients; Patient 5): 8 to 10 h
- negative effects (patients; Patient 5): No negative effects were detected
- Time of analgesia (onset) (patients; Patient 5, breast cancer stage IV, pain 7-8, 0.7 mg two times a day, 6 days): 10 to 15 min
- degree of analgesia, pain scale 0-10 (patients; Patient 5, pain before 7-8): 1-3
- duration of analgesic effect (patients; Patient 6): 8 to 12 h
- negative effects (patients; Patient 6): No negative effects were detected
- Time of analgesia (onset) (patients; Patient 6, compression fracture of a vertebra, pain 7-8, 1.5 mg 2 times a day, 2 days): 10 to 15 min
- degree of analgesia, pain scale 0-10 (patients; Patient 6, pain before 7-8): 1-3
- adverse reactions (impaired consciousness, euphoria or dysphoria, digestive tract, respiratory depression, heart disorders) (patients; all of the cases (Patients 1-6)): no adverse reactions
- reduced activity in horizontal movement on the rod (mice [2]; higher doses 20-100 mg/kg): 10-20%
- maintaining balance on a horizontal rod, experimental vs control groups (mice [2]; intraperitoneally): did not observe significant differences

From patent US10357533B2, “Drug for the effective control of acute and or chronic pain and a method for its administration” (PVP LABS PTE. LTD., priority 2016, dated 2019)
